Experimental data: BindingDB's records for doi:10.1021/jm0504961 (Merck Frosst Centre For Therapeutic Research, 2005)

How the values were obtained:
Cathepsin S [1] = target: Cathepsin S (Mouse, UniProt O70370); test: Enzyme Inhibition Assay
Protocol: (§1) Prior to the addition of substrate, different concentrations of the inhibitor ranging from 100 uM to 0.2 nM were preincubated for 15 min with enzyme to allow the establishment of the enzyme-inhibitor complex. […] The percent inhibition of the reaction was calculated from a control reaction containing only vehicle. IC50 curves were generated by fitting percent inhibition values to a four parameter logistic model (SOFTMAX PRO, Molecular Devices).

Cathepsin S [2] = target: Cathepsin S (Homo sapiens, UniProt P25774); test: Enzyme Inhibition Assay and Whole Cell Enzyme Occupancy Assay; conditions: pH 6.5; 22 °C
Sequence of Cathepsin S (Homo sapiens, UniProt P25774) (P25774 whole entry): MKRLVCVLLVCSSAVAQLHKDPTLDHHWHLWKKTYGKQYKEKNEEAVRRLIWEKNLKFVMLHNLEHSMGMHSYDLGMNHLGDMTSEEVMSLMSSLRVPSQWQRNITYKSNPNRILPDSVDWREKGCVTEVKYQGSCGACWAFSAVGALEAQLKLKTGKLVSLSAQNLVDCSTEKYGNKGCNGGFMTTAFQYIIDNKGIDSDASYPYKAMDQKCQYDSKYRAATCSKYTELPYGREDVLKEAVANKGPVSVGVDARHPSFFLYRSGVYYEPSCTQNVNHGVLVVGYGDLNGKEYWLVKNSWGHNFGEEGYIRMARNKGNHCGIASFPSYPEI
Protocol: (§2) Prior to the addition of substrate, different concentrations of the inhibitor ranging from 100 uM to 0.2 nM were preincubated for 15 min with enzyme to allow the establishment of the enzyme-inhibitor complex. The proteolytic cleavage of N-acyl aminocoumarins by cathepsins was conducted in 96-well plate format and the plate read using a Spectramax (Molecular Devices) plate reader. The excitation wavelength was 355 nm and the emission wavelength was 460 nm for peptidyl-AMC substrates. The percent inhibition of the reaction was calculated from a control reaction containing only vehicle. IC50 curves were generated by fitting percent inhibition values to a four parameter logistic model (SOFTMAX PRO, Molecular Devices). EC50/IC50 values were obtained from whole cell enzyme occupancy assays for human cathepsins B (in HepG2 cells), L (in HepG2 cells), and S (in Ramos cells).

Procathepsin L = Procathepsin L (Homo sapiens, UniProt P07711); test: as above; conditions: pH 5.5; 22 °C
Sequence of Procathepsin L (P07711 whole entry): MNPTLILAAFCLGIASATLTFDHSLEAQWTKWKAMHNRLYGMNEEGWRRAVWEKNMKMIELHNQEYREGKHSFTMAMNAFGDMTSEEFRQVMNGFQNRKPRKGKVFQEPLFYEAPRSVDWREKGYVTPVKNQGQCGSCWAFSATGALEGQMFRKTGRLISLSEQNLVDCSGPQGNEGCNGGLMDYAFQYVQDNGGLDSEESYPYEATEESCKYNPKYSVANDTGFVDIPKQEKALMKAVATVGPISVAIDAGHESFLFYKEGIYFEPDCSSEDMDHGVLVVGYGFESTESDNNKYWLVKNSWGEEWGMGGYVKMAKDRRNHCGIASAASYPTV
Protocol: as §2

Cathepsin K = target: T1, Cathepsin K (Oryctolagus cuniculus, UniProt P43236); test: Enzyme Inhibition Assay and Bone Resorption Assay; conditions: pH 5.5; 22 °C
T1 sequence (P43236 whole entry): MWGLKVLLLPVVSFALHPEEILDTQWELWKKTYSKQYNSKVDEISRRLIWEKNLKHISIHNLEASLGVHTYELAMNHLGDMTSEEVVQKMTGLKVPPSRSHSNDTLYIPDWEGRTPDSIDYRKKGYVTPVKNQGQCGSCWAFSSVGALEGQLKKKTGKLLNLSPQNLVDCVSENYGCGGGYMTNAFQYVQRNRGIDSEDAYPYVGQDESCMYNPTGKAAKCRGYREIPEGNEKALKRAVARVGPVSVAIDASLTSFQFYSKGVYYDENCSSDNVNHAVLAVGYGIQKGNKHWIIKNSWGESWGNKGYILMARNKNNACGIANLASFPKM
Protocol: as §1, with “Devices). EC50/IC50 values were obtained from functional rabbit bone resorption assay.” for “Devices).”

Sequence of Cathepsin S (Mouse, UniProt O70370) (O70370 whole entry): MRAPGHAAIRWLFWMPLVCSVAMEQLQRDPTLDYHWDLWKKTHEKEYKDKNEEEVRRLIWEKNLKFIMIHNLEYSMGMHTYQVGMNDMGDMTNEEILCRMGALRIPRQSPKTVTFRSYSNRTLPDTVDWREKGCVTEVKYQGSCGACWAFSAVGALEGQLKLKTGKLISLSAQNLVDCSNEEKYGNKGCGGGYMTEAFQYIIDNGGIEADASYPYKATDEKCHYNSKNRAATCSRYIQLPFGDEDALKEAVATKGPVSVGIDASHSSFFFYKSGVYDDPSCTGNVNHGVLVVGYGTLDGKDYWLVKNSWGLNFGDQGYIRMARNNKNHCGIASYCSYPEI

Row | EC50 (Cathepsin S [1]) [nM] | EC50 (Cathepsin S [2]) [nM] | EC50 (Procathepsin L) [nM] | EC50 (Cathepsin K) [nM] | SMILES
1 | > 10000 |  |  |  | CN1CCN(c2nc(-c3ccc(C(=O)NC4(C(=O)NCC(F)(F)F)CCCCC4)cc3)cs2)CC1 [4-[2-(4-methylpiperazin-1-yl)-1,3-thiazol-4-yl]-N-{1-[(2,2,2-trifluoroethyl)carbamoyl]cyclohexyl}benzamide]
2 | 740 | 1340 | 320 | 149 | CC(C)C[C@@H](C(=O)NCC#N)c1cccc(-c2ccc(N3CCNCC3)cc2)c1 [(2R)-N-(cyanomethyl)-4-methyl-2-{3-[4-(piperazin-1-yl)phenyl]phenyl}pentanamide]
3 | 40 | 10 | 230 |  | N#CCNC(=O)[C@H](CC1CCCCC1)NC(=O)c1ccccc1 [(2S)-N-(cyanomethyl)-3-cyclohexyl-2-(phenylformamido)propanamide]
4 | 480 | 2900 | 48 |  | CCCN1CCN(c2ccc(C(=O)NC3(C(=O)NCC#N)CCCCC3)cc2)CC1 [N-[1-(cyanomethylcarbamoyl)cyclohexyl]-4-(4-propylpiperazin-1-yl)]
5 | 8500 | 4800 | > 10000 | 580 | N#CCNC(=O)C1(NC(=O)c2ccc(N3CCOCC3)cc2)CCCCC1 [N-{1-[(cyanomethyl)carbamoyl]cyclohexyl}-4-(morpholin-4-yl)benzamide]
6 | 318 | 790 | 340 | 5 | CN1CCN(c2nc(-c3ccc(C(=O)NC4(C(=O)NCC#N)CCCCC4)cc3)cs2)CC1 [N-{1-[(cyanomethyl)carbamoyl]cyclohexyl}-4-[2-(4-methylpiperazin-1-yl)-1,3-thiazol-4-yl]benzamide]
7 | 6700 | > 10000 | > 10000 | 41 | N#CCNC(=O)C1(NC(=O)c2ccc(-c3csc(N4CCOCC4)n3)cc2)CCCCC1 [N-{1-[(cyanomethyl)carbamoyl]cyclohexyl}-4-[2-(morpholin-4-yl)-1,3-thiazol-4-yl]benzamide]
